# Reference: PubChem BioAssay AID1845201 (Molecular Pharmacology Branch, DTP, NCI, 2023)
# Tested on: COR L88 complex tumor spheroid viability
# Experiment: Anticancer human tumor COR L88 cell line growth inhibition;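 further: compound exposure lasted 7 days before viability readout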;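 on viability, T/C: percent of DMSO vehicle-treated spheroids = 100%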
# Conditions: for IC50: curve of first compound; for viability, T/C: stronger effect = lower value
# Procedure, shortened: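 Complex spheroids of malignant cells with endothelial cells and mesenchymal stem cells; agents alone or combined, from near clinical Cmax (or 10 microM if unknown) down in half-log steps, 0.25% DMSO final.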
structure (smiles),measurement,setting,value
CNCc1ccc(-c2cc(-c3nc(-c4ccc(S(=O)(=O)C(C)C)cc4)cnc3N)on2)cc1 + COc1cc2c(cc1O)CCNC21CSC2c3c(OC(C)=O)c(C)c4c(c3C(COC1=O)N1C(O)C3Cc5cc(C)c(OC)c(O)c5C(C21)N3C)OCO4,IC50,second compound 30 pM,394 nM
same,IC50,second compound 94.9 pM,331 nM
same,IC50,second compound 0.0003 µM,248 nM
same,IC50,second compound 0.000949 µM,30.7 nM
same,IC50,second compound 0.003 µM,< 9.49 nM
same,"viability, T/C","second compound 30 pM, first compound 0.00949 µM",108%
same,"viability, T/C","second compound 30 pM, first compound 0.03 µM",110%
same,"viability, T/C","second compound 30 pM, first compound 0.0949 µM",101%
same,"viability, T/C","second compound 30 pM, first compound 0.3 µM",57.5%
same,"viability, T/C","second compound 30 pM, first compound 0.949 µM",22.4%
same,"viability, T/C","second compound 30 pM, first compound 3 µM",7.83%
same,"viability, T/C","second compound 94.9 pM, first compound 0.00949 µM",102%
same,"viability, T/C","second compound 94.9 pM, first compound 0.03 µM",106%
same,"viability, T/C","second compound 94.9 pM, first compound 0.0949 µM",101%
same,"viability, T/C","second compound 94.9 pM, first compound 0.3 µM",50.2%
same,"viability, T/C","second compound 94.9 pM, first compound 0.949 µM",22.5%
same,"viability, T/C","second compound 94.9 pM, first compound 3 µM",5.19%
same,"viability, T/C","second compound 0.0003 µM, first compound 0.00949 µM",82%
same,"viability, T/C","second compound 0.0003 µM, first compound 0.03 µM",91.2%
same,"viability, T/C","second compound 0.0003 µM, first compound 0.0949 µM",75.9%
same,"viability, T/C","second compound 0.0003 µM, first compound 0.3 µM",43.7%
same,"viability, T/C","second compound 0.0003 µM, first compound 0.949 µM",19.8%
same,"viability, T/C","second compound 0.0003 µM, first compound 3 µM",8.93%
same,"viability, T/C","second compound 0.000949 µM, first compound 0.00949 µM",62.4%
same,"viability, T/C","second compound 0.000949 µM, first compound 0.03 µM",49.4%
same,"viability, T/C","second compound 0.000949 µM, first compound 0.0949 µM",31.6%
same,"viability, T/C","second compound 0.000949 µM, first compound 0.3 µM",10.9%
same,"viability, T/C","second compound 0.000949 µM, first compound 0.949 µM",7.96%
same,"viability, T/C","second compound 0.000949 µM, first compound 3 µM",3.08%
same,"viability, T/C","second compound 0.003 µM, first compound 0.00949 µM",0.92%
same,"viability, T/C","second compound 0.003 µM, first compound 0.03 µM",0.86%
same,"viability, T/C","second compound 0.003 µM, first compound 0.0949 µM",0.58%
same,"viability, T/C","second compound 0.003 µM, first compound 0.3 µM",0.62%
same,"viability, T/C","second compound 0.003 µM, first compound 0.949 µM",0.86%
same,"viability, T/C","second compound 0.003 µM, first compound 3 µM",0.52%
COc1ccc([C@@H](O)c2cc(-c3ncnc4cc(N5CCOCC5)ccc34)c(F)cc2Cl)nn1 + COc1cc2c(cc1O)CCNC21CSC2c3c(OC(C)=O)c(C)c4c(c3C(COC1=O)N1C(O)C3Cc5cc(C)c(OC)c(O)c5C(C21)N3C)OCO4,IC50,second compound 30 pM,7580 nM
same,IC50,second compound 94.9 pM,> 10000 nM
same,IC50,second compound 0.0003 µM,1150 nM
same,IC50,second compound 0.000949 µM,111 nM
same,IC50,second compound 0.003 µM,< 31.6 nM
same,"viability, T/C","second compound 30 pM, first compound 0.0316 µM",100%
same,"viability, T/C","second compound 30 pM, first compound 0.1 µM",115%
same,"viability, T/C","second compound 30 pM, first compound 0.316 µM",93.9%
same,"viability, T/C","second compound 30 pM, first compound 1 µM",89.2%
same,"viability, T/C","second compound 30 pM, first compound 3.16 µM",64.6%
same,"viability, T/C","second compound 30 pM, first compound 10 µM",45.3%
same,"viability, T/C","second compound 94.9 pM, first compound 0.0316 µM",104%
same,"viability, T/C","second compound 94.9 pM, first compound 0.1 µM",108%
same,"viability, T/C","second compound 94.9 pM, first compound 0.316 µM",102%
same,"viability, T/C","second compound 94.9 pM, first compound 1 µM",67.8%
same,"viability, T/C","second compound 94.9 pM, first compound 3.16 µM",57.4%
same,"viability, T/C","second compound 94.9 pM, first compound 10 µM",52.2%
same,"viability, T/C","second compound 0.0003 µM, first compound 0.0316 µM",71.4%
same,"viability, T/C","second compound 0.0003 µM, first compound 0.1 µM",63.9%
same,"viability, T/C","second compound 0.0003 µM, first compound 0.316 µM",61.7%
same,"viability, T/C","second compound 0.0003 µM, first compound 1 µM",52.5%
same,"viability, T/C","second compound 0.0003 µM, first compound 3.16 µM",35.8%
same,"viability, T/C","second compound 0.0003 µM, first compound 10 µM",9.95%
same,"viability, T/C","second compound 0.000949 µM, first compound 0.0316 µM",63.2%
same,"viability, T/C","second compound 0.000949 µM, first compound 0.1 µM",51.9%
same,"viability, T/C","second compound 0.000949 µM, first compound 0.316 µM",22.9%
same,"viability, T/C","second compound 0.000949 µM, first compound 1 µM",1.63%
same,"viability, T/C","second compound 0.000949 µM, first compound 3.16 µM",0.6%
same,"viability, T/C","second compound 0.000949 µM, first compound 10 µM",1.43%
same,"viability, T/C","second compound 0.003 µM, first compound 0.0316 µM",0.95%
same,"viability, T/C","second compound 0.003 µM, first compound 0.1 µM",1.03%
same,"viability, T/C","second compound 0.003 µM, first compound 0.316 µM",1.37%
same,"viability, T/C","second compound 0.003 µM, first compound 1 µM",2.44%
same,"viability, T/C","second compound 0.003 µM, first compound 3.16 µM",2.37%
same,"viability, T/C","second compound 0.003 µM, first compound 10 µM",2.01%
